# Values quoted from earlier work as cited in patent US20030180704A1, “Ice-controlling molecules and uses thereof” (priority 2002, published 2003).
# Test system: Crithidia fasciculata
# Settings: cryopreservation at -20 C, different media
row,SMILES,toxicity to Crithidia fasciculata
1,"OC1CCCC(O)C1 (stereo not shown) [1,3-cyclohexanediol]",toxic

# Same assay, conditions: stored at -20 C, different media
row,SMILES,ability to cryopreserve Crithidia fasciculata without toxicity
1,"OCCC(O)CO (stereo not shown) [1,2,4-butantriol]",potential outstanding cryoprotectants
2,"OC1CCC(O)CC1 (stereo not shown) [1,4-cyclohexanediol]",potential outstanding cryoprotectants
3,CC(=O)NCCO [N-acetylethanolamine],potential outstanding cryoprotectants
4,C[S+](C)[O-] [dimethylsulfoxide],potential outstanding cryoprotectants
5,OCC(O)CO [glycerol],best cryoprotectant
6,CC(O)CO (stereo not shown) [propylene glycol],potential outstanding cryoprotectants
